Test results reported in BindingDB's records for patent WO2021069705 (MONTE ROSA THERAPEUTICS AG, 2021).

Target: Protein cereblon (Homo sapiens, UniProt Q96SW2)
Test: Protocol for Fluorescent Polarization assay
Experimental: Compound activity was monitored in a fluorescence polarization (FP) homogeneous assay using 1 -[5-({2-[2-(2-{[2-(2,6-dioxopiperidin-3-yl)-1 ,3-dioxo-2,3-dihydro-1 H-isoindol-4-yl]oxy}acetamido)ethoxy]ethyl}carbamoyl)pentyl]-3,3-dimethyl-2-[(1 E,3E)-5-[(2E)-1 ,3,3-trimethyl-5-sulfo-2,3-dihydro-1 H-indol-2-ylidene]penta-1 ,3-dien-1 -yl]-3H-indol-1 -ium-5-sulfonate as a fluorescent probe. Unless otherwise stated, all reagents were purchased from Sigma Aldrich. Enzymatic reactions were conducted in Perkin-Elmer Black 384 well ProxiPlate Plus (catalogue no. 6008269) in 10 μL total volume. Full length wild-type cereblon CRBN (80.0 nM, 10 μL) was incubated in assay buffer containing 20 mM HEPES (pH 8.0), 1 50 NaCl, 0.5 mM TCEP and 0.05% Tween 20 in the presence or absence of compound (300 nL). Inhibitors were stored as 10 mM DMSO stocks in an inert environment (low humidity, dark, low oxygen, room temperature) using the Storage Pod System. Compounds and DMSO were dispensed using the Echo E5XX (Labcyte Inc. USA) to give concentrations from 300 to 0.937 or 3000 to 9.3 nM in a 1 2 data point curve. […] FP was measured after a period of 1 2 hours using a Pherastar plate reader (BMG Labtech, Germany) exciting at 590 nm and measuring the amount of parallel and perpendicular light at 675 nm. […]

Protein cereblon, sequence (Q96SW2 whole entry): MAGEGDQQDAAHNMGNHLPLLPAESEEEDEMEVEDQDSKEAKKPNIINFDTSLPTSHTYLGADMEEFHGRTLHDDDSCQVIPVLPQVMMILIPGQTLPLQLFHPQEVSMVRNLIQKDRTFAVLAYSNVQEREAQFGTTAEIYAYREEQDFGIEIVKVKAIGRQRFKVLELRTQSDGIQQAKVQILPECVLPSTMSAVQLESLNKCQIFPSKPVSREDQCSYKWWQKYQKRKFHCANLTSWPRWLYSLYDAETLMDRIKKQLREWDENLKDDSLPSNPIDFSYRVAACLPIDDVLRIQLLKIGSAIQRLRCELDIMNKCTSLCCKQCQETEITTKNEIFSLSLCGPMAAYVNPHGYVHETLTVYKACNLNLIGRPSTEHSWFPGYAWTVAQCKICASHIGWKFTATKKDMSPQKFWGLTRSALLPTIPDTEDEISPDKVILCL

IC50: 617 nM
SMILES: O=C1CCC(N2Cc3ccc(CNC(=O)Nc4ccc(Br)cc4)cc3C2=O)C(=O)N1 (stereo unspecified) [WO2021069705, Compound 9]
